Here are results for one compound from patent publication US20100274050A1, “SOLID MILNACIPRAN AND PROCESS FOR THE PREPARATION OF THE SAME” (Glenmark Generics Limited, priority 2009, published 2010).

A short description of this data set: Bulk density / tapped density (tapped density tester ETD-1020). In kind it is physicochemical. From the text:
The bulk density used tapped density tester dual-platform ETD-1020 (Electrolab). System specifications. Speed: nominal rate of 300 taps per minute, Accuracy: Actual setting ±1 tap, Drop height: 14±2 mm. Platform rotation: 5-15 rotations/minute.

Where a name gives a salt, the structure may show the parent alone.

With `CCN(CC)C(=O)C1(c2ccccc2)CC1CN` (stereo not shown) [milnacipran hydrochloride, Milnacipran hydrochloride], the Tapped density entry is on record as “Tapped density = 0.43 g/ml”.
